In patent EP4700025A1, “AMIDE COMPOUND, PHARMACEUTICAL COMPOSITION COMPRISING SAME, AND USE THEREOF” (Suzhou Genhouse Bio Co., Ltd., priority 2023, dated 2024):

What was measured:
HCT-116 = assay: CCK8 proliferation inhibition, HCT-116; assay type: cell-based; conditions: Homo sapiens, 192 h, CCK8, 8 days after drug treatment
Protocol: (§1) The above normally growing cells were digested with a cell trypsinization solution, centrifuged, counted, and seeded into a 96-well plate at an appropriate cell density (2000 cells/well) at 100 µL/well. The next day after cell seeding, the compounds at different concentrations were added to the wells. Three replicate wells were set for each concentration point, and a corresponding DMSO negative control group was also set. CCK8 solution was added to each well 8 days after drug treatment. The plate was incubated at 37 °C for a period of time (OD450 of the vehicle group reached 1.0 or higher) before the absorbance at 450 nm was read using a microplate reader. The inhibition rates were calculated, and the EC50 values were determined by fitting using the GraphPad Prism 7.0 software. Table 2. EC50 values of compounds at cellular level

HCT-116-MTAP^-/- = assay: CCK8 proliferation inhibition, HCT-116-MTAP^-/-; assay type: cell-based; conditions: Homo sapiens, 192 h; HCT-116-MTAP^-/- (MTAP-deficient); CCK8, 8 days after drug treatment
Protocol: as §1

SDMA [1] = assay: SDMA Inhibition Assay in HCT-116 cells; assay type: cell-based; conditions: Homo sapiens, HCT-116, 96 hours
Protocol: (§2) The next day, the cells were treated with the compounds at different concentrations (with an initial concentration of 10 µM, 5-fold dilution, 9 concentration gradients). After 96 hours, the culture medium was pipetted out and the cells were washed 2 times with 100 µL of PBS. The cells were then fixed with 4% paraformaldehyde and incubated at room temperature for 20 min. The fixative solution was discarded, and the cells were washed with PBS. 150 µL of specialized blocking solution (containing 1% Triton-100) was added to each well for blocking at room temperature for 2 hours, and the plate was washed with PBS to remove excess blocking solution. […] The cells were incubated at 4 °C overnight. The next day, the cells were separately washed 2 times with 1× PBST. […] The cells were incubated at room temperature for 2 hours. The cells were washed 2 times with 1× PBST and 1 time with PBS. Fluorescence signals at 700 nm and 800 nm were separately detected using a Li-COR Odyssey two-color near-infrared laser imager. The inhibition rates were calculated, and the EC50 values were determined by fitting using the GraphPad Prism 7.0 software. Table 3. Inhibition of SDMA by test compounds

SDMA [2] = assay: SDMA Inhibition Assay in HCT-116-MTAP^-/- cells; assay type: cell-based; conditions: Homo sapiens, 96 hours
Protocol: as §2

[3] = Mouse brain-to-blood and tumor tissue-to-blood drug concentration ratio (PC-9 tumor-bearing mice); assay type: in vivo, Balb/c-nude female mice; conditions: 5 mg/kg PO, PC-9 tumor-bearing mice
Protocol: Human lung cancer PC-9 cells were cultured in monolayer in vitro using the 1640 culture medium (HyClone) containing 10% fetal bovine serum (BI) and 1% penicillin and streptomycin (Beyotime) in an incubator at 37 °C with 5% CO2. The cells were digested with trypsin 2 to 3 times weekly for passaging. When the saturation degree of the cells was 80% to 90%, the cells were collected, counted, and inoculated. 5 × 10^6 (0.2 mL, 1:1 gel addition) PC-9 cells were subcutaneously inoculated into the right back of Balb/c-nude female mice, and the mice were used for subsequent PK and tissue distribution experiments after the mean tumor volume reached about 500 mm^3. On the day of administration, mice were weighed for actual body weight and the administration volume was calculated. In each group of 9 mice, the compound was administered by single intravenous injection or oral gavage. Whole blood samples were collected via the orbit at prescribed time points. After the blood sample collection, the samples were immediately transferred to labeled commercial sample tubes containing K2-EDTA (0.85 to 1.15 mg), followed by centrifugation (3200× g, 4 °C, 10 min) and plasma collection. The plasma was transferred to a pre-cooled centrifuge tube, frozen in dry ice, and then stored in an ultra-low temperature freezer at -60 °C or lower until the LC-MS/MS analysis was performed. Tumor and brain tissues were collected after the animals were euthanized using CO2 at prescribed time points, frozen in liquid nitrogen, and stored in an ultra-low temperature freezer at -60 °C or lower until the LC-MS/MS analysis was performed. 20 µL of the plasma sample or brain/tumor tissue homogenate was added to 80 µL of an internal standard solution (a 50 ng/mL solution of propafenone in acetonitrile). The plate was sealed using a film sealer at 165 °C, shaken on a micro oscillator (at the maximum vibration speed) for 10 min, and centrifuged at 4000 rpm for 20 min using a low-speed benchtop centrifuge; 10 µL of the supernatant was transferred and added to 90 µL of acetonitrile. The mixture was vortexed and mixed well, and then the plate was sealed using the film sealer at 165 °C. After the mixture was vortexed and mixed well, 1 µL of the supernatant was subjected to LC-MS/MS analysis.
• Brain-to-blood drug concentration ratio of mice at the same time point = drug concentration in brain tissue/drug concentration in plasma • Tumor tissue-to-blood drug concentration ratio of mice at the same time point = drug concentration in tumor tissue/drug concentration in plasma

A549 = assay: CCK8 proliferation inhibition, A549; assay type: cell-based; conditions: Homo sapiens, 192 h, CCK8, 8 days after drug treatment
Protocol: as §1

SDMA [4] = assay: SDMA Inhibition Assay in A549 cells; assay type: cell-based; conditions: Homo sapiens, A549, 96 hours
Protocol: as §2

NCI-H838 cells = assay: Pharmacodynamic study, NCI-H838 subcutaneous xenograft; assay type: in vivo, mouse
Protocol: Human non-small cell lung cancer NCI-H838 cells were cultured in monolayer in vitro using the McCoy 5A culture medium (HyClone) containing 10% fetal bovine serum (BI) and 1% penicillin and streptomycin (Beyotime) in an incubator at 37 °C with 5% CO2. The cells were digested with trypsin 2 to 3 times weekly for passaging. When the saturation degree of the cells was 80% to 90%, the cells were collected, counted, and inoculated. 5 × 10^6 (0.1 mL) NCI-H838 cells were subcutaneously inoculated on the right back of each mouse. On about day 29 after inoculation of the cells, the mean tumor volume reached 156 mm^3. The mice were randomly grouped for administration (the animals were divided into an administration group and a control group, with 6 animals in each group). The day of grouping was designated as d0, and intragastric administration was started on d1. The administration was performed once daily at an administration volume of 10 mL/kg. Vehicle control was administered to the control group. The tumor volume was measured 2 to 3 times weekly, and meanwhile, the mice were weighed and the data were recorded; daily observations were made to record the body surface signs of the mice. After the experiment was completed, the tumors were collected, weighed, and photographed for recording.
Calculation formula for tumor volume: Tumor volume (mm^3) = 1/2 × (a×b^2) [formula] (note: a represents long diameter and b represents short diameter) [formula]

CYP450 3A4 = biological target: T1, CYP450 3A4 (Homo sapiens, UniProt P08684); assay: Inhibition of human liver microsome CYP450 enzyme 3A4; assay type: in vitro ADME; conditions: human, microsomes, pH 7.4
T1 construct: from tissue; host or cells: human liver microsomes
T1 sequence (P08684 whole entry): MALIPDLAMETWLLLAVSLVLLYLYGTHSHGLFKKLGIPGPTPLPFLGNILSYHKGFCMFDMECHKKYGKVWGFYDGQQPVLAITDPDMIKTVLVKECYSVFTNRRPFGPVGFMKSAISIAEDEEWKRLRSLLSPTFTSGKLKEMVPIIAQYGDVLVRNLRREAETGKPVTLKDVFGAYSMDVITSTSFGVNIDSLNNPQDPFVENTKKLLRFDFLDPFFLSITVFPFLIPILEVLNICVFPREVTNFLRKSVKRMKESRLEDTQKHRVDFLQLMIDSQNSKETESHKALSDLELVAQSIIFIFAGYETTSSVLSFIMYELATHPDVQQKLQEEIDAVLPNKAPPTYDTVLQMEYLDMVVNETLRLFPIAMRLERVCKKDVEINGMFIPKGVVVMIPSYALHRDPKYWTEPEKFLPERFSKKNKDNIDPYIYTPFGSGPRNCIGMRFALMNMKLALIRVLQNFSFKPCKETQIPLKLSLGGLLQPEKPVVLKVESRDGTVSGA
Protocol: 100 mM K-Buffer: 9.5 mL of stock solution A was mixed with 40.5 mL of stock solution B, the total volume was adjusted to 500 mL with ultrapure water, and the buffer was titrated to pH 7.4 with KOH or H3PO4. • Starting material A (1 M potassium dihydrogen phosphate): 136.5 g of potassium dihydrogen phosphate in 1 L of water; • Stock solution B ([…]): 174.2 g of potassium dihydrogen phosphate in 1 L of water.
The test substance powder was prepared into a stock solution at a certain concentration with DMSO or another organic solvent, which was then further diluted with a suitable organic solvent.
The liver microsomal in vitro incubation system for the CYP450 enzyme metabolism phenotype study was a biochemical reaction of the prepared liver microsomes supplemented with a redox coenzyme and an enzyme-specific selective inhibitor under simulated physiological temperature and physiological environment conditions.
The concentration of the parent drug or a metabolite thereof in the incubation solution was determined by LC-MS/MS. and the IC50 value was calculated.

Row | Structure (SMILES) | EC50 (HCT-116) [nM] | EC50 (HCT-116-MTAP^-/-) [nM] | EC50 (SDMA [1]) [nM] | EC50 (SDMA [2]) [nM] | Brain-to-blood drug concentration ratio ([3]; 1 h) | Drug concentration in blood ([3]; 1 h) [ng/mL] | Drug concentration in brain ([3]; 1 h) [ng/mL] | Drug concentration in tumor tissue ([3]; 1 h) [ng/mL] | Tumor tissue-to-blood drug concentration ratio ([3]; 1 h) | Brain-to-blood drug concentration ratio ([3]; 4 h) | Drug concentration in blood ([3]; 4 h) [ng/mL] | Drug concentration in brain ([3]; 4 h) [ng/mL] | Drug concentration in tumor tissue ([3]; 4 h) [ng/mL] | Tumor tissue-to-blood drug concentration ratio ([3]; 4 h) | EC50 (A549) [nM] | EC50 (SDMA [4]) [nM] | Day 31 TGI (NCI-H838 cells; 10 mpk PO QD) [%] | Day 31 TGI (NCI-H838 cells; 30 mpk PO QD) [%] | Day 31 TGI (NCI-H838 cells; 100 mpk PO QD) [%] | IC50 (CYP450 3A4) [µM]
1 | Cn1ncc2c(N)nc3cnc(C(=O)N4CCN(C5CC5)CC4c4ccc5c(c4)OC(F)(F)O5)cc3c21 (racemic) [Example I-112] | > 10000 | 57 | 285 | 2.9 | 1.17 | 220 | 258 | 346 | 1.57 | 3.05 | 10.3 | 31.3 | 93 | 9.05 | – | – | – | – | – | –
2 | Cn1ncc2c(N)nc3cnc(C(=O)N(Cc4ccc5c(c4)OC(F)(F)O5)C4CC4)cc3c21 [Example I-37] | 545 | 10.1 | 205 | 1.9 | – | – | – | – | – | – | – | – | – | – | 72.7 | 2.7 | 58 | 71 | 104 | > 10
3 | Cn1ncc2c(N)nc3cc(F)c(C(=O)N(Cc4ccc5c(c4)OC(F)(F)O5)[C@H]4CCOC4)cc3c21 [Example I-25] | 1320 | 5.3 | 123 | 1.4 | – | – | – | – | – | – | – | – | – | – | 33 | 0.8 | – | – | – | –
4 | Cn1ncc2c(N)nc3cc(C#N)c(C(=O)N4CCOC[C@@H]4c4ccc5c(c4)OC(F)(F)O5)cc3c21 [Example I-53] | 210 | 5.3 | 68.7 | 0.7 | – | – | – | – | – | – | – | – | – | – | 15.5 | 1 | – | – | – | –
